Source: patent US10857085B2, “Preparations comprising carnosines” (Symrise AG, priority 2015, dated 2020)

Experiments:
[1] = target: pancreas elastase (Sus scrofa, UniProt P00772); assay: Inhibition of elastase activity (chromogenic labelled elastin substrate, OD 410 nm); assay type: biochemical; details: 0.3% by weight; 30 minutes at room temperature; relative to control = 0%
Procedure: Elastase is a protease which is secreted by the fibroblasts under inflammatory conditions and is jointly responsible for the degradation of dermal macromolecules, such as, for example, collagen and elastin, and thus for skin ageing.
In order to determine the effectiveness of the plant extract in inhibiting the release of elastase, pancreas elastase (a serine protease) was studied and, as substrate, elastin was labeled with a chromogenic synthetic substrate. The system was incubated with the active ingredients for 30 minutes at room temperature and then, after centrifugation, the optical density of the dye at 410 nm was determined. The amount of extracts used was 0.3% by weight. The results were given relative to a control as standard (=0%); al-antitrypsin was used as the standard.

[2] = tested on: type I collagen; assay: Inhibition of the non-enzymatic glycation of collagen (Schiff's bases, fluorescence 430 nm); assay type: biochemical; details: type I collagen with glucose, 21 days at 45° C.; control with glucose 100, control without glucose 46
Description: Glycation is a non-enzymatic reaction of glucose or other sugars with proteins to form glycoproteins. This reaction leads to unintentional changes in the collagen and elastin and thus to changes in the extracellular matrix. The function of the collagen and the extracellular matrix is disrupted. The prevention according to the invention of glycation leads to a reduction in the non-enzymatic change in collagen and elastin and thus to the prevention of a reduced function of the extracellular matrix.
The suspensions were then centrifuged and the content of Schiff's bases in the supernatant liquid was determined by fluorescence measurement at 430 nm. The results are again based on the control as standards (without extract and without glucose).

[3] = tested on: human fibroblasts and human keratinocytes; assay: Inhibition of apoptosis induced by growth factor deficiency (cell count, BrdU ELISA of cytoplasmic DNA fragments); assay type: cell-based; details: 0.001 % w/v, in comparison to the control = 100; for Content of DNA fragments: BrdU in cytoplasmic DNA fragments, based on a million cells
Description: Apoptosis, unlike necrosis, is the natural purposive cell death of specific undesired or damaged cells. It is an active process of the cells (suicide on command). In the case of skin ageing especially, a deficiency of growth factors in the skin leads to induced apoptosis of the skin cells. In the cells affected by apoptosis, the nuclear DNA is degraded by the specific enzyme endonuclease and the DNA fragments are passed into the cytoplasm.
The ability of carnosines to prevent apoptosis induced by a deficiency of growth factors in human skin cells was studied. These tests were carried out in vitro on human fibroblasts and human keratinocytes. The human cells were cultivated in a nutrient medium (DMEM=Dulbecco minimum essential medium from Life Technologie Sarl) with 10% fetal calf serum (from Dutcher). Bromodeoxyuridine (BrdU) was added to the nutrient medium; it was incorporated into the DNA and later served for detection of the DNA fragments in the cytoplasm. After an incubation period of two days, the nutrient medium was replaced by nutrient medium (DMEM) without fetal calf serum. The active substance to be tested was added. For comparison, a cell sample without active substance to be tested was incubated.
After a further incubation period of one or two days at 37° C., the cells were recovered by trypsinization according to the method of Dunnebacke and Zitcer described in: Cell and tissue culture, Ed.: J. Paul, Churchill Livingstone, 1975, p. 226. After the trypsinization, the cells were centrifuged and counted. Then the content of BrdU in the DNA fragments from the cytoplasm was determined by means of the ELISA test (ELISA kit from Roche). The content of BrdU is a measure of the DNA fragments which have passed from the nucleus, the cell core, into the cytoplasm. The results were based on a million cells and given in percent in comparison to the control.

[4] = tested on: glucose-6-phosphate dehydrogenase (G6PDH); assay: G6PDH activity in vitro on human fibroblasts (enzymatic method of Okada); assay type: cell-based; details: 0.001 % w/v; for G6PDH after 3 d: compared to blank sample = 100, after 3 d; for G6PDH after 6 d: compared to blank sample = 100, after 6 d
Description: (§1) The enzyme glucose-6-phosphate dehydrogenase (G6PDH) catalyzes the first step of the so-called “pentose pathway”, in which an important DNA component, namely deoxyribose, is formed. Glucose 6-phosphate (G6P) is thereby converted into 6-phosphogluconate (6PG) by means of G6PDH. At the same time, the coenzyme NADP required thereby is reduced to NADPH2, which in turn is able to catalyze a large number of other biological reactions such as, for example, the recycling of glutathione or lipid synthesis. Reduced glutathione protects many enzymes which have SH groups and cells against oxidative stress, such as, for example, the action of UV. The G6PDH content is thus an important parameter for cell protection and skin renewal. G6PDH activity was determined in vitro on human fibroblasts by the enzymatic method of Okada, while the DNA content was determined by the Desaulniers method. The results of 3 series of measurements with triple determination are given in %-rel. compared to a blank sample.

[5] = tested on: human fibroblasts; assay: DNA content of human fibroblasts (Desaulniers method); assay type: cell-based; details: 0.001 % w/v; for DNA after 3 d: compared to blank sample = 100, after 3 d; for DNA after 6 d: compared to blank sample = 100, after 6 d
Description: as §1

[6] = tested on: human fibroblasts; assay: Synthesis of dermal macromolecules (GAG) in collagen gel containing human fibroblasts; assay type: cell-based; details: 0.5% by weight FCS + 0.01% by weight substance; for Density, 14 days: relative density of collagen gel (0=clear or white, 1=black)
Description: The dermis is composed of cells (fibroblasts and mast cells), tissue components (collagen and elastin) and so-called ground substances. These ground substances include, for example, glycosaminoglycan (GAG), hyaluronic acid, chondroitin sulfate, dermatan sulfate and glycoproteins. As a result of skin ageing, the intermolecular strength and elasticity of the dermis, and thus the tautness of the skin, is reduced. Likewise, the number of skin cells present, in particular fibroblasts, is reduced as the skin ages. The collagen fibers are fragmented over time, and the proportion of insoluble to soluble collagen increases. The fine dermal elastic fibers become coarse and are destroyed. The synthesis of GAG (glycosaminoglycan) is reduced. All these processes contribute to skin ageing and the manifestations thereof, such as wrinkles and lack of tautness of the skin.
The measuring method is based on staining macromolecules in a culture of human fibroblasts which, with type I collagen, forms a collagen gel or collagen lattice fibers. Certain regions of those fibers are quantified by means of staining reagents for the proportion of the mentioned macromolecules.
For that purpose, a suspension of human fibroblasts was mixed with a solution of type I collagen (1-2 mg/ml). This mixture was incubated in a defined nutrient medium (DMEM=Dulbecco minimum essential medium, Life Technologie Sarl) comprising 0.5 or 2% by weight fetal calf serum (FCS) for 14 days at 37° C. in a 5% CO2 atmosphere in Petri dishes (5 ml per dish) with the addition of different concentrations of the plant extracts to be tested.
The kinetics of the collagen gel […] was determined 2 to 3 times per week by measuring two perpendicular diameters on each collagen gel using a microscope with an image analysis system. The size of the area is shown in cm^2 in Table 8. After incubation for 14 days, the density of the collagen gel was determined by image analysis with a light source of visible light, by comparatively analyzing different gray stages. This is a relative determination of the density (0=clear or white and 1=black), which cannot be given a unit.
After an incubation period of 7 and 14 days, biopsies (tissue samples) were taken and histological sections of the collagen gel containing human fibroblasts were obtained. The synthesis of macromolecules was analyzed and quantified by the staining of glycosaminoglycan with PAS Alcian blue, for example from SIGMA, by the periodic acid-Schiff method (PAS) described in: Mowry R W, Anal. NY Adad. Sci. 106 Art 2, 402, 1963. The stimulation of the synthesis of macromolecules was evaluated in the immediate vicinity of fibroblasts. This zone is also referred to as the “perifibroblast area”.
The “perifibroblast” secretion, or the secretion of fibroblasts into the periphery, was quantified by an image analyzer by means of a microscope. Reactive structures in the “perifibroblast area” were detected, and the different gray stages were comparatively determined. The values of the gray stages were thereby subdivided from 0=white to 255=black. These parameters are directly proportional to the intensity of the synthesis of macromolecules and thus to the GAG content of the fibroblasts.
The results of the values of these parameters are shown in Table 3 below and are to be regarded directly as representative values for the synthesis activity of the fibroblasts. The content of GAGs is described as a relative value of the gray stage.

pancreas elastase, sequence (P00772 27-266): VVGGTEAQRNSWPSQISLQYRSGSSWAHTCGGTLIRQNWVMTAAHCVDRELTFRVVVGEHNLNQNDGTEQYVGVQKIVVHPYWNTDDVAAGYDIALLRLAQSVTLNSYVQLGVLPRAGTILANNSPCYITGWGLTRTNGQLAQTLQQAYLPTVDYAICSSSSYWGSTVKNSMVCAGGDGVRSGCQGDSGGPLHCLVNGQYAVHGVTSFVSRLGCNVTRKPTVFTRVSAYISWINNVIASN

Elastase inhibition, Inhibition [%] [1]	G6PDH after 3 d [4]	G6PDH after 6 d [4]	Compound	Inhibition of the glycation of collagen, Inhibition [%] [2]	Content of DNA fragments [3]	Cell count ([3]; medium without fetal calf serum)	DNA after 3 d [5]	DNA after 6 d [5]	Area, 7 days ([6]; collagen gel area, 7 days)	Area, 14 days ([6]; collagen gel area, 14 days)	Density, 14 days ([6]; 14 days)	GAG content, 7 days ([6]; relative value of the gray stage (0=white to 255=black), perifibroblast area, 7 days)	GAG content, 14 days ([6]; relative value of the gray stage (0=white to 255=black), perifibroblast area, 14 days)
28%	104 %-rel.	109 %-rel.	Cl.NCCC(=O)NCCc1cnc[nH]1 [Carnicine*HCl]	65%	88%	118%	106 %-rel.	118 %-rel.	9.9 cm2	5.8 cm2	0.25	11.8	13.3
–	–	–	NCCC(=O)N[C@@H](Cc1cnc[nH]1)C(=O)O [L-Carnosine]	68%	85%	–	–	120 %-rel.	–	–	0.25	–	–
–	89 %-rel.	85 %-rel.	CCCCC(CC)COC(=O)C(C#N)=C(c1ccccc1)c1ccccc1 (stereo not drawn) [Octocrinyl, reference compound]	–	–	–	95 %-rel.	90 %-rel.	–	–	–	–	–
